In paper PMC5218480 (PLoS ONE, 2017):

Test system: MV-4-11 cells
Experiment: Gene expression microarray analysis (Affymetrix PrimeView) and GSEA
Type: cell-based, human
Design: RFU PODN (11730768_x_at) / Fold change /veh PODN (11730768_x_at) / RFU LINC00158 (11744669_a_at) / Fold change /veh LINC00158 (11744669_a_at) / RFU DUSP10 (11751237_a_at) / Fold change /veh DUSP10 (11751237_a_at) / RFU ID3 (11757404_x_at) / Fold change /veh ID3 (11757404_x_at) / RFU PLEKHG5 (11737974_s_at) / Fold change /veh PLEKHG5 (11737974_s_at) / RFU LRRC4B (11730491_at) / Fold change /veh LRRC4B (11730491_at) / RFU GIMAP4 (11747438_a_at) / Fold change /veh GIMAP4 (11747438_a_at) / RFU KRT8 (11758183_x_at) / Fold change /veh KRT8 (11758183_x_at) / RFU CNN1 (11734310_a_at) / Fold change /veh CNN1 (11734310_a_at) / RFU VPS37D (11726825_at) / Fold change /veh VPS37D (11726825_at) / RFU C10orf10 (11716522_x_at) / Fold change /veh C10orf10 (11716522_x_at) / RFU KIR2DL2 /// KIR2DL4 /// KIR2DL5A /// KIR2DL5B /// KIR2DS1 /// KIR2DS2 /// KIR2DS3 /// KIR2DS4 /// KIR3DL3 /// KIR3DL3 /// KIR3DS1 (11738374_at) / Fold change /veh KIR2DL2 /// KIR2DL4 /// KIR2DL5A /// KIR2DL5B /// KIR2DS1 /// KIR2DS2 /// KIR2DS3 /// KIR2DS4 /// KIR3DL3 /// KIR3DL3 /// KIR3DS1 (11738374_at) / RFU C1QL1 (11718748_at) / Fold change /veh C1QL1 (11718748_at) / RFU TMPRSS4 (11747572_a_at) / Fold change /veh TMPRSS4 (11747572_a_at) / RFU HAMP (11756126_x_at) / Fold change /veh HAMP (11756126_x_at) / RFU RNFT2 (11725882_a_at) / Fold change /veh RNFT2 (11725882_a_at) / RFU NR4A2 (11747474_a_at) / Fold change /veh NR4A2 (11747474_a_at) / RFU ABCC12 (11746883_a_at) / Fold change /veh ABCC12 (11746883_a_at) / RFU TMEM136 (11760407_x_at) / Fold change /veh TMEM136 (11760407_x_at) / RFU CLDN22 /// WWC2 (11732394_at) / Fold change /veh CLDN22 /// WWC2 (11732394_at) / RFU HLA-DPB1 (11760878_x_at) / Fold change /veh HLA-DPB1 (11760878_x_at) / RFU SPINT1 (11716480_a_at) / Fold change /veh SPINT1 (11716480_a_at) / RFU GAP43 (11754022_s_at) / Fold change /veh GAP43 (11754022_s_at) / RFU A4GNT (11735810_at) / Fold change /veh A4GNT (11735810_at) / RFU PRB3 (11715151_x_at) / Fold change /veh PRB3 (11715151_x_at) / RFU TUBB4B (11761932_at) / Fold change /veh TUBB4B (11761932_at) / RFU CAPN14 (11732068_a_at) / Fold change /veh CAPN14 (11732068_a_at) / RFU TMCC2 (11721928_a_at) / Fold change /veh TMCC2 (11721928_a_at) / RFU IRGQ (11745062_a_at) / Fold change /veh IRGQ (11745062_a_at) / RFU FAM174B (11720279_a_at) / Fold change /veh FAM174B (11720279_a_at) / RFU TMPRSS4 (11748680_a_at) / Fold change /veh TMPRSS4 (11748680_a_at) / RFU FAM212B (11763350_a_at) / Fold change /veh FAM212B (11763350_a_at) / RFU PLEKHG5 (11743358_a_at) / Fold change /veh PLEKHG5 (11743358_a_at) / RFU ZSCAN30 (11745921_a_at) / Fold change /veh ZSCAN30 (11745921_a_at) / RFU CMKLR1 (11741424_a_at) / Fold change /veh CMKLR1 (11741424_a_at) / RFU LOC101060620 /// MAPK8IP1 (11723275_at) / Fold change /veh LOC101060620 /// MAPK8IP1 (11723275_at) / RFU SPTSSB (11747773_x_at) / Fold change /veh SPTSSB (11747773_x_at) / RFU PRSS12 (11739890_at) / Fold change /veh PRSS12 (11739890_at) / RFU BIN1 (11741810_x_at) / Fold change /veh BIN1 (11741810_x_at) / RFU WNT11 (11732464_a_at) / Fold change /veh WNT11 (11732464_a_at) / RFU C10orf10 (11716521_a_at) / Fold change /veh C10orf10 (11716521_a_at) / RFU C5orf56 (11738089_at) / Fold change /veh C5orf56 (11738089_at) / RFU CYB561 (11721691_x_at) / Fold change /veh CYB561 (11721691_x_at) / RFU ANKRD19P (11752326_a_at) / Fold change /veh ANKRD19P (11752326_a_at) / RFU OR2T12 /// OR2T33 /// OR2T8 (11738714_s_at) / Fold change /veh OR2T12 /// OR2T33 /// OR2T8 (11738714_s_at) / RFU VCAN (11748164_a_at) / Fold change /veh VCAN (11748164_a_at) / RFU JSRP1 (11732532_at) / Fold change /veh JSRP1 (11732532_at) / RFU KRTAP10-11 (11738290_x_at) / Fold change /veh KRTAP10-11 (11738290_x_at) / RFU MYO3A (11730013_a_at) / Fold change /veh MYO3A (11730013_a_at) / RFU EBF3 (11725865_a_at) / Fold change /veh EBF3 (11725865_a_at) / RFU CAMK2N1 (11719241_x_at) / Fold change /veh CAMK2N1 (11719241_x_at) / RFU C5orf56 (11738088_a_at) / Fold change /veh C5orf56 (11738088_a_at) / RFU OLFML3 (11715873_a_at) / Fold change /veh OLFML3 (11715873_a_at) / RFU LOC100653217 /// NTM (11731650_a_at) / Fold change /veh LOC100653217 /// NTM (11731650_a_at) / RFU MAPK11 (11762145_a_at) / Fold change /veh MAPK11 (11762145_a_at) / RFU FIZ1 (11724087_x_at) / Fold change /veh FIZ1 (11724087_x_at) / RFU OASL (11726364_x_at) / Fold change /veh OASL (11726364_x_at) / RFU SOX15 (11748057_x_at) / Fold change /veh SOX15 (11748057_x_at) / RFU CD79A (11719716_a_at) / Fold change /veh CD79A (11719716_a_at) / RFU HIST1H1D (11736915_at) / Fold change /veh HIST1H1D (11736915_at) / RFU CASKIN2 (11723855_a_at) / Fold change /veh CASKIN2 (11723855_a_at) / RFU LOC730098 (11760151_x_at) / Fold change /veh LOC730098 (11760151_x_at) / RFU OR4N2 (11742367_at) / Fold change /veh OR4N2 (11742367_at) / RFU PRRT2 (11749266_a_at) / Fold change /veh PRRT2 (11749266_a_at) / RFU SNX32 (11753110_a_at) / Fold change /veh SNX32 (11753110_a_at) / RFU CDHR5 (11726645_a_at) / Fold change /veh CDHR5 (11726645_a_at) / RFU RCAN1 (11760418_a_at) / Fold change /veh RCAN1 (11760418_a_at) / RFU FAM167A (11723789_a_at) / Fold change /veh FAM167A (11723789_a_at) / RFU FAM26E (11764081_at) / Fold change /veh FAM26E (11764081_at) / RFU ISYNA1 (11749810_s_at) / Fold change /veh ISYNA1 (11749810_s_at) / RFU ACY1 (11761880_at) / Fold change /veh ACY1 (11761880_at) / RFU 11764098_at / Fold change /veh 11764098_at / RFU SAMD14 (11745864_x_at) / Fold change /veh SAMD14 (11745864_x_at) / RFU NPB (11741838_a_at) / Fold change /veh NPB (11741838_a_at) / RFU TMPRSS6 (11731388_a_at) / Fold change /veh TMPRSS6 (11731388_a_at) / RFU KRTAP10-2 (11738614_at) / Fold change /veh KRTAP10-2 (11738614_at) / RFU ARHGAP8 /// PRR5-ARHGAP8 (11727945_x_at) / Fold change /veh ARHGAP8 /// PRR5-ARHGAP8 (11727945_x_at) / RFU KRTAP5-7 /// NADSYN1 (11734609_at) / Fold change /veh KRTAP5-7 /// NADSYN1 (11734609_at) / RFU RASL12 (11751679_a_at) / Fold change /veh RASL12 (11751679_a_at) / RFU CDKN2B (11736163_a_at) / Fold change /veh CDKN2B (11736163_a_at) / RFU PRF1 (11729649_at) / Fold change /veh PRF1 (11729649_at) / RFU, ZNF638 /// ZNF638-IT1 / Fold change vs veh, ZNF638 /// ZNF638-IT1 / RFU, PANK3 / Fold change vs veh, PANK3 / RFU, SH3YL1 / Fold change vs veh, SH3YL1 / RFU, ZEB2 / Fold change vs veh, ZEB2 / RFU, NRIP1 / Fold change vs veh, NRIP1 / RFU, PTTG1IP / Fold change vs veh, PTTG1IP / RFU, CAPN2 / Fold change vs veh, CAPN2 / RFU, MED14 / Fold change vs veh, MED14 / RFU, SNORA58 / Fold change vs veh, SNORA58 / RFU, C1orf63 / Fold change vs veh, C1orf63 / RFU, LRRFIP1 / Fold change vs veh, LRRFIP1 / RFU, NDUFAF7 / Fold change vs veh, NDUFAF7 / RFU, SLC12A2 / Fold change vs veh, SLC12A2 / RFU, IBTK / Fold change vs veh, IBTK / RFU, ESF1 / Fold change vs veh, ESF1 / Fold change vs veh, TMEM50B / RFU, TAOK1 / Fold change vs veh, TAOK1 / RFU, ACBD3 / Fold change vs veh, ACBD3 / RFU, TMA16 / Fold change vs veh, TMA16 / RFU, RWDD3 / Fold change vs veh, RWDD3 / RFU, BCAT1 / Fold change vs veh, BCAT1 / RFU, EDEM3 / Fold change vs veh, EDEM3 / RFU, TMEM33 / Fold change vs veh, TMEM33 / RFU, WDR75 / Fold change vs veh, WDR75 / RFU, AHCTF1 / Fold change vs veh, AHCTF1 / RFU, TFRC / Fold change vs veh, TFRC / RFU, ZDHHC17 / Fold change vs veh, ZDHHC17 / RFU, NOM1 / Fold change vs veh, NOM1 / RFU, ARL8B / Fold change vs veh, ARL8B / RFU, ZBTB11 / Fold change vs veh, ZBTB11 / RFU, TAMM41 / Fold change vs veh, TAMM41 / RFU, KIAA1704 /// LOC100996395 / Fold change vs veh, KIAA1704 /// LOC100996395 / RFU, ING1 / Fold change vs veh, ING1 / RFU, TRMT61B / Fold change vs veh, TRMT61B / RFU, FUBP3 / Fold change vs veh, FUBP3 / RFU, TP53 / Fold change vs veh, TP53 / RFU, TNKS2 / Fold change vs veh, TNKS2 / RFU, ZFP14 / Fold change vs veh, ZFP14 / RFU, ACTR2 / Fold change vs veh, ACTR2 / RFU, PPP3R1 / Fold change vs veh, PPP3R1 / RFU, PIK3R1 / Fold change vs veh, PIK3R1 / RFU, HNRNPA1 / Fold change vs veh, HNRNPA1 / RFU, RNF170 / Fold change vs veh, RNF170 / RFU, ZNF28 / Fold change vs veh, ZNF28 / RFU, RNGTT / Fold change vs veh, RNGTT / RFU, OGT / Fold change vs veh, OGT / RFU, BRD1 / Fold change vs veh, BRD1 / RFU, MARS / Fold change vs veh, MARS / RFU, ZNF655 / Fold change vs veh, ZNF655 / RFU, FAHD1 / Fold change vs veh, FAHD1 / RFU, BDP1 / Fold change vs veh, BDP1 / RFU, LRRCC1 / Fold change vs veh, LRRCC1 / RFU, ARID1A / Fold change vs veh, ARID1A / RFU, ZNF146 / Fold change vs veh, ZNF146 / RFU, ZNF330 / Fold change vs veh, ZNF330 / RFU, GPN3 / Fold change vs veh, GPN3 / RFU, C9orf123 / Fold change vs veh, C9orf123 / RFU, N4BP2L2 / Fold change vs veh, N4BP2L2 / RFU, ARFIP1 / Fold change vs veh, ARFIP1 / RFU, FAM179B / Fold change vs veh, FAM179B / RFU, BCL10 / Fold change vs veh, BCL10 / RFU, UHRF1BP1L / Fold change vs veh, UHRF1BP1L / RFU, BET1 / Fold change vs veh, BET1 / RFU, CNOT2 / Fold change vs veh, CNOT2 / RFU, ZNF268 / Fold change vs veh, ZNF268 / Fold change vs veh, ZNF507 / RFU, DGCR2 / Fold change vs veh, DGCR2 / RFU, WDSUB1 / Fold change vs veh, WDSUB1 / Fold change vs veh, HSP90B1 /// MIR3652 / RFU, ADSS / Fold change vs veh, ADSS / RFU, GK / Fold change vs veh, GK / RFU, ZNF148 / Fold change vs veh, ZNF148 / RFU, TAF9 / Fold change vs veh, TAF9 / RFU, SLC1A5 / Fold change vs veh, SLC1A5 / RFU, SLMO2 / Fold change vs veh, SLMO2 / RFU, ABCC4 / Fold change vs veh, ABCC4 / RFU, LOC101060439 /// RAP1B / Fold change vs veh, LOC101060439 /// RAP1B / RFU, RFX7 / Fold change vs veh, RFX7 / RFU, GTPBP10 / Fold change vs veh, GTPBP10 / RFU, CNEP1R1 / Fold change vs veh, CNEP1R1 / RFU, BIVM-ERCC5 /// ERCC5 / Fold change vs veh, BIVM-ERCC5 /// ERCC5 / RFU, ILF3 / Fold change vs veh, ILF3 / RFU 11762660_at / Fold change /veh 11762660_at / RFU VCAN (11757783_s_at) / Fold change /veh VCAN (11757783_s_at) / RFU DDX43 (11728927_at) / Fold change /veh DDX43 (11728927_at) / RFU KRT8 (11758188_x_at) / Fold change /veh KRT8 (11758188_x_at) / RFU NKD1 (11759106_at) / Fold change /veh NKD1 (11759106_at) / RFU SRD5A1 (11742802_a_at) / Fold change /veh SRD5A1 (11742802_a_at) / RFU TPSAB1 /// TPSB2 (11721975_s_at) / Fold change /veh TPSAB1 /// TPSB2 (11721975_s_at) / RFU GSTM3 (11746129_a_at) / Fold change /veh GSTM3 (11746129_a_at) / RFU IL23R (11737362_x_at) / Fold change /veh IL23R (11737362_x_at) / RFU TMEM51 (11727254_a_at) / Fold change /veh TMEM51 (11727254_a_at) / RFU PIWIL2 (11732686_x_at) / Fold change /veh PIWIL2 (11732686_x_at) / RFU ORM1 (11744905_x_at) / Fold change /veh ORM1 (11744905_x_at) / RFU CCDC152 (11743942_at) / Fold change /veh CCDC152 (11743942_at) / RFU ECM1 (11717891_a_at) / Fold change /veh ECM1 (11717891_a_at) / RFU IL23R (11748794_a_at) / Fold change /veh IL23R (11748794_a_at) / RFU TNFAIP8L3 (11732012_x_at) / Fold change /veh TNFAIP8L3 (11732012_x_at) / RFU MBOAT4 (11741988_at) / Fold change /veh MBOAT4 (11741988_at) / RFU 11764193_at / Fold change /veh 11764193_at / RFU TMEM53 (11763286_at) / Fold change /veh TMEM53 (11763286_at) / RFU MAGEB2 (11727129_at) / Fold change /veh MAGEB2 (11727129_at) / RFU TMEM200A (11744735_a_at) / Fold change /veh TMEM200A (11744735_a_at) / RFU CCDC152 (11751479_a_at) / Fold change /veh CCDC152 (11751479_a_at) / RFU FAM211A (11726209_a_at) / Fold change /veh FAM211A (11726209_a_at) / RFU RGS16 (11746705_a_at) / Fold change /veh RGS16 (11746705_a_at) / RFU VCAN (11755009_s_at) / Fold change /veh VCAN (11755009_s_at) / RFU RHOB (11743442_s_at) / Fold change /veh RHOB (11743442_s_at) / RFU RGS16 (11720943_a_at) / Fold change /veh RGS16 (11720943_a_at) / RFU RGS16 (11720944_at) / Fold change /veh RGS16 (11720944_at) / RFU, VPS4B / Fold change vs veh, VPS4B / RFU, CREB1 / Fold change vs veh, CREB1 / RFU, DNAJC13 / Fold change vs veh, DNAJC13 / RFU, GNAQ / Fold change vs veh, GNAQ / RFU, CDK5R1 / Fold change vs veh, CDK5R1 / RFU, ZRANB3 / Fold change vs veh, ZRANB3 / RFU, CUL4A / Fold change vs veh, CUL4A / RFU, CCNY / Fold change vs veh, CCNY / RFU, UFL1 / Fold change vs veh, UFL1 / RFU, COG3 / Fold change vs veh, COG3 / RFU, DIAPH2 / Fold change vs veh, DIAPH2 / RFU, SKA2 / Fold change vs veh, SKA2 / RFU, AFF3 / Fold change vs veh, AFF3 / RFU, LMF1 / Fold change vs veh, LMF1 / RFU, IPO11 / Fold change vs veh, IPO11 / RFU, DFFB / Fold change vs veh, DFFB / RFU, FOXP1 / Fold change vs veh, FOXP1 / RFU, CARD8 / Fold change vs veh, CARD8 / RFU, STRN3 / Fold change vs veh, STRN3 / RFU, ADK / Fold change vs veh, ADK / RFU, RASSF2 / Fold change vs veh, RASSF2 / RFU, WIPF1 / Fold change vs veh, WIPF1 / RFU, LARP1B / Fold change vs veh, LARP1B / RFU, RASA1 / Fold change vs veh, RASA1 / RFU, RB1 / Fold change vs veh, RB1 / RFU, PPFIA1 / Fold change vs veh, PPFIA1 / RFU, MAT2A / Fold change vs veh, MAT2A / RFU, CCT5 / Fold change vs veh, CCT5 / RFU, WDR92 / Fold change vs veh, WDR92 / RFU, CUX1 / Fold change vs veh, CUX1 / RFU, TTC7A / Fold change vs veh, TTC7A / RFU, TMEM135 / Fold change vs veh, TMEM135 / RFU, DEPTOR / Fold change vs veh, DEPTOR / RFU, CPM / Fold change vs veh, CPM / RFU, DNAJB6 / Fold change vs veh, DNAJB6 / RFU, CACNA2D3 / Fold change vs veh, CACNA2D3 / RFU, DTX4 / Fold change vs veh, DTX4 / RFU, TFCP2 / Fold change vs veh, TFCP2 / RFU, GMCL1 /// GMCL1P1 / Fold change vs veh, GMCL1 /// GMCL1P1 / RFU, AEBP2 / Fold change vs veh, AEBP2 / RFU, SNHG1 /// SNORD22 /// SNORD25 /// SNORD26 /// SNORD27 /// SNORD28 /// SNORD29 /// SNORD31 / Fold change vs veh, SNHG1 /// SNORD22 /// SNORD25 /// SNORD26 /// SNORD27 /// SNORD28 /// SNORD29 /// SNORD31 / Fold change (Aza/veh), C12orf56 (ProbeSet 11735607_a_at) / Fold change (ACY-1035/veh), C12orf56 (ProbeSet 11735607_a_at) / Fold change (Aza/veh), FGFR1OP (ProbeSet 11751329_s_at) / Fold change (ACY-1035/veh), FGFR1OP (ProbeSet 11751329_s_at) / Fold change (Aza/veh), VPS36 (ProbeSet 11739960_a_at) / Fold change (ACY-1035/veh), VPS36 (ProbeSet 11739960_a_at) / RFU SYPL1 (11715823_x_at) / Fold change /veh SYPL1 (11715823_x_at) / RFU IGFBP7 (11715501_s_at) / Fold change /veh IGFBP7 (11715501_s_at) / RFU REEP3 (11722064_at) / Fold change /veh REEP3 (11722064_at) / RFU IGLL1 (11728026_x_at) / Fold change /veh IGLL1 (11728026_x_at): dose or concentration left out as unconfirmed
Conditions: ProbeSet 11743929_at; LIST B

Nc1ncn([C@@H]2O[C@H](CO)[C@@H](O)[C@H]2O)c(=O)n1 [azacitidine]
Fold change vs veh, UHRF1BP1L: 0.95
